Measured values published in the supplement of paper PMC10307832.

Legend:
Assay in all cases: relative viability (nuclei count vs DMSO), 5 days (fraction); higher = more cells survive
Pictilisib + Tozasertib = compound: CS(=O)(=O)N1CCN(Cc2cc3nc(-c4cccc5[nH]ncc45)nc(N4CCOCC4)c3s2)CC1 [Pictilisib] + Cc1cc(Nc2cc(N3CCN(C)CC3)nc(Sc3ccc(NC(=O)C4CC4)cc3)n2)n[nH]1 [Tozasertib] (partner 0.1 µM)
In short: (§1)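 Relative viability equals treated-well nuclei counts divided by vehicle-well nuclei counts. Counts came from 4× images of lung cancer cell lines grown in 1536-well plates for 5 days after pin-tool dosing on the day after seeding. Dosing used one drug alone or a fixed anchor-drug dose plus five library-drug doses (not always all listed) in √10 steps, and values are medians of duplicate plates.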

MK-2206 + OSI-027 = compound: NC1(c2ccc(-c3nc4ccn5c(=O)[nH]nc5c4cc3-c3ccccc3)cc2)CCC1 [MK-2206] + COc1cccc2cc(-c3nc([C@H]4CC[C@H](C(=O)O)CC4)n4ncnc(N)c34)[nH]c12 [OSI-027] (partner 0.5 µM)
In short: as §1

Pictilisib + Crizotinib = compound: CS(=O)(=O)N1CCN(Cc2cc3nc(-c4cccc5[nH]ncc45)nc(N4CCOCC4)c3s2)CC1 [Pictilisib] + C[C@@H](Oc1cc(-c2cnn(C3CCNCC3)c2)cnc1N)c1c(Cl)ccc(F)c1Cl [Crizotinib] (partner 1 µM)
In short: as §1

Pictilisib + Alpelisib = compound: CS(=O)(=O)N1CCN(Cc2cc3nc(-c4cccc5[nH]ncc45)nc(N4CCOCC4)c3s2)CC1 [Pictilisib] + Cc1nc(NC(=O)N2CCC[C@H]2C(N)=O)sc1-c1ccnc(C(C)(C)C(F)(F)F)c1 [Alpelisib] (partner 2 µM)
In short: as §1

MK-2206 + Pictilisib = compound: NC1(c2ccc(-c3nc4ccn5c(=O)[nH]nc5c4cc3-c3ccccc3)cc2)CCC1 [MK-2206] + CS(=O)(=O)N1CCN(Cc2cc3nc(-c4cccc5[nH]ncc45)nc(N4CCOCC4)c3s2)CC1 [Pictilisib] (partner 1 µM)
In short: as §1

| Cell Line | relative viability (Pictilisib + Tozasertib; first compound 0.02 µM) | relative viability (Pictilisib + Tozasertib; first compound 0.06325 µM) | relative viability (Pictilisib + Tozasertib; first compound 0.6325 µM) | relative viability (Pictilisib + Tozasertib; first compound 2 µM) | relative viability (MK-2206 + OSI-027; first compound 0.01 µM) | relative viability (MK-2206 + OSI-027; first compound 0.03162 µM) | relative viability (MK-2206 + OSI-027; first compound 0.3162 µM) | relative viability (MK-2206 + OSI-027; first compound 1 µM) | relative viability (Pictilisib + Crizotinib; first compound 0.02 µM) | relative viability (Pictilisib + Crizotinib; first compound 0.06325 µM) | relative viability (Pictilisib + Crizotinib; first compound 0.6325 µM) | relative viability (Pictilisib + Crizotinib; first compound 2 µM) | relative viability (Pictilisib + Alpelisib; first compound 0.02 µM) | relative viability (Pictilisib + Alpelisib; first compound 0.06325 µM) | relative viability (Pictilisib + Alpelisib; first compound 0.6325 µM) | relative viability (Pictilisib + Alpelisib; first compound 2 µM) | relative viability (MK-2206 + Pictilisib; first compound 0.01 µM) | relative viability (MK-2206 + Pictilisib; first compound 0.03162 µM) | relative viability (MK-2206 + Pictilisib; first compound 0.3162 µM) | relative viability (MK-2206 + Pictilisib; first compound 1 µM) |
| --- | --- | --- | --- | --- | --- | --- | --- | --- | --- | --- | --- | --- | --- | --- | --- | --- | --- | --- | --- | --- |
| SW 900 | 0.651 | 0.63 | 0.562 | 0.334 | 0.728 | 0.542 | 0.416 | 0.481 |  |  |  |  |  |  |  |  |  |  |  |  |
| PC-3 [JPC-3] | 0.84 | 0.893 | 0.736 | 0.784 | 0.825 | 0.749 | 0.6 | 0.641 | 0.983 | 0.969 | 1.03 | 0.905 | 1 | 1.09 | 1.04 | 0.976 | 0.774 | 0.874 | 0.776 | 0.676 |
| NCI-H1703 |  |  |  |  |  |  |  |  | 0.532 | 0.666 | 0.261 | 0.178 | 0.435 | 0.314 | 0.227 | 0.195 | 0.239 | 0.232 | 0.236 | 0.254 |
| EPLC-272H | 0.26 | 0.231 | 0.206 | 0.179 | 0.31 | 0.259 | 0.26 | 0.266 | 0.995 | 0.993 | 0.702 | 0.72 | 1.06 | 0.877 | 0.826 | 0.738 | 0.292 | 0.333 |  | 0.336 |
| NCI-H1792 |  |  |  |  | 0.718 | 0.824 | 0.686 | 0.622 | 0.916 | 0.925 | 0.772 | 0.425 | 0.72 | 0.715 | 0.657 | 0.36 | 0.27 | 0.271 | 0.251 | 0.283 |
| NCI-H2085 | 0.765 | 0.733 | 0.52 | 0.3 | 0.676 | 0.819 | 0.474 | 0.365 | 0.887 | 0.994 | 0.747 | 0.394 | 1.01 | 0.959 | 0.74 | 0.419 | 0.516 | 0.415 | 0.416 | 0.438 |
| LK-2 | 0.209 | 0.173 | 0.154 | 0.158 | 0.179 | 0.199 | 0.181 | 0.151 | 0.251 | 0.23 | 0.239 | 0.23 | 1.16 | 1.06 | 0.925 | 0.905 | 0.684 | 0.707 | 0.583 | 0.667 |
| NCI-H1395 | 0.715 | 0.722 | 0.773 | 0.473 | 0.699 | 0.588 | 0.437 | 0.471 |  |  |  |  | 1.11 | 1.03 | 0.855 | 0.531 | 0.653 | 0.677 | 0.462 | 0.498 |
| NCI-H1648 | 0.377 | 0.36 | 0.455 | 0.246 | 0.256 | 0.246 | 0.279 | 0.251 |  |  |  |  |  |  |  |  |  |  |  |  |
| NCI-H522 | 0.52 | 0.542 | 0.444 | 0.397 | 0.867 | 0.726 | 0.615 | 0.631 |  |  |  |  |  |  |  |  |  |  |  |  |
| EBC-1 |  |  |  |  |  |  |  |  | 0.205 | 0.211 | 0.213 | 0.175 | 0.904 | 0.836 | 0.67 | 0.295 | 0.459 | 0.314 | 0.176 | 0.164 |
| ChaGo-K-1 | 0.227 | 0.21 | 0.161 | 0.17 | 0.575 | 0.631 | 0.477 | 0.463 | 1.17 | 1.21 | 1.08 | 0.947 |  |  |  |  | 0.914 | 0.981 | 0.692 | 0.401 |
| NCI-H1299 |  |  |  |  |  |  |  |  | 0.99 | 1.03 | 1.05 | 0.933 | 1.06 | 1.07 | 1.08 | 1.04 | 0.832 | 0.728 | 0.744 | 0.769 |
| NCI-H1623 | 0.378 | 0.364 | 0.381 | 0.272 | 0.44 | 0.426 | 0.411 | 0.355 |  |  |  |  |  |  |  |  |  |  |  |  |
| NCI-H1793 | 0.288 | 0.29 | 0.189 | 0.097 | 0.274 | 0.288 | 0.229 | 0.199 |  |  |  |  | 0.729 | 0.516 | 0.566 | 0.307 | 0.323 | 0.31 | 0.307 | 0.284 |
| IA-LM |  |  |  |  |  |  |  |  | 0.649 | 0.75 | 0.628 | 0.534 | 0.732 | 0.982 | 0.749 | 0.418 | 0.299 | 0.256 | 0.26 | 0.141 |
| A549 |  |  |  |  |  |  |  |  | 0.694 | 0.729 | 0.436 | 0.199 | 0.785 | 0.627 | 0.619 | 0.345 | 0.496 | 0.494 | 0.394 | 0.304 |
| NCI-H1563 |  |  |  |  | 0.756 | 0.727 | 0.626 | 0.6 | 0.924 | 0.889 | 0.761 | 0.581 | 1.06 | 0.851 | 0.724 | 0.591 | 0.625 | 0.665 | 0.633 | 0.626 |
| Calu-6 |  |  |  |  |  |  |  |  | 0.751 | 0.969 | 0.728 | 0.582 | 1.01 | 0.967 | 0.909 | 0.833 | 0.93 | 0.895 | 0.86 | 0.873 |
| NCI-H1650 | 0.467 | 0.401 | 0.348 | 0.18 | 0.58 | 0.66 | 0.488 | 0.39 | 1.02 | 1.1 | 1.2 | 0.395 |  |  |  |  | 0.549 | 0.566 | 0.476 | 0.56 |
| NCI-H2342 | 0.46 | 0.474 | 0.409 | 0.276 | 0.649 | 0.614 | 0.555 | 0.484 |  |  |  |  |  |  |  |  |  |  |  |  |
